Measurements published in patent US8343981B2, “Heterocyclyl-substituted dihydroquinazolines and their use as antiviral agents” (AiCuris GmbH & Co. KG, priority 2003, dated 2013).

Key:
HCMV = assay: Anti-HCMV cytopathogenicity test; assay type: cell-based, human cytomegalovirus; conditions: for SI HCMV (selectivity index): CC50 (NHDF)/EC50 (HCMV); for EC50: Human betaherpesvirus 5, 144 h, HCMV-infected NHDF cells, M.O.I. 0.001-0.002, 6 days, 50% inhibition of cytopathic effect
Protocol: (§1) Anti-HCMV (Anti-Human Cytomegalovirus) Cytopathogenicity Tests The test compounds are employed as 50 millimolar (mM) solutions in dimethyl sulphoxide (DMSO). Ganciclovir®, Foscarnet® and Cidofovir® are used as reference compounds. After addition of in each case 2 μl of the 50, 5, 0.5 and 0.05 mM DMSO stock solutions to 98 μl portions of cell culture medium in row […] for duplicate determinations, 1:2 dilutions are carried out with 50 μl portions of medium up to row 11 of the 96-well plate. The wells in rows 1 and 12 each contain 50 μl of medium. Then 150 μl portions of a suspension of 1×10^4 cells (human prepuce fibroblasts [NHDF]) are pipetted into each of the wells (row 1=cell control) and, in rows 2-12, a mixture of HCMV-infected and uninfected NHDF cells (M.O.I.=0.001-0.002), i.e. 1-2 infected cells per 1000 uninfected cells. Row 12 (without substance) serves as virus control. The final test concentrations are 250-0.0005 μM. The plates are incubated at 37° C./5% CO2 for 6 days, i.e. until all the cells are infected in the virus controls (100% cytopathogenic effect [CPE]). The wells are then fixed and stained by adding a mixture of formalin and Giemsa's dye (30 minutes), washed with double-distilled water and dried in a drying oven at 50° C. The plates are then assessed visually using an overhead microscope (Plaque Multiplier from Technomara). The following data can be acquired from the test plates: • CC50 (NHDF)=substance concentration in μM at which no visible cytostatic effects on the cells are evident by comparison with the untreated cell control; • EC50 (HCMV)=substance concentration in μM which inhibits the CPE (cytopathic effect) by 50% compared with the untreated virus control; • SI (selectivity index)=CC50 (NHDF)/EC50 (HCMV).

[1] = Cytostatic effect on NHDF cells in the anti-HCMV cytopathogenicity test; assay type: cell-based; conditions: NHDF cells (human prepuce fibroblasts), 6 days incubation, visual assessment, concentration at which no visible cytostatic effects are evident
Protocol: as §1

Compound	SI HCMV (selectivity index) (HCMV)	EC50 (HCMV) [nM]	CC50 at 6 days [1] [µM]
COc1ccc(C(F)(F)F)cc1N1C(N2CCN3c4cccc(C)c4CC3C2)=Nc2c(F)cccc2C1CC(=O)O (stereo not drawn) [Example 9, [8-Fluoro-3-[2-methoxy-5-(trifluoromethyl)phenyl]-2-(9-methyl-3,4,10,10a-tetra-hydropyrazino[1,2-a]indol-2(1H)-yl)-3,4-dihydroquinazolin-4-yl]acetic acid]	600	40	24
COc1ccc(C(F)(F)F)cc1N1C(N2CCN3c4ccc(F)cc4CC3C2)=Nc2c(F)cccc2C1CC(=O)O (single isomer, unassigned) [Example 16, {8-Fluoro-2-(8-fluoro-3,4,10,10a-tetrahydropyrazino[1,2-a]indol-2(1H)-yl)-3-[2-methoxy-5-(trifluoromethyl)phenyl]-3,4-dihydroquinazolin-4-yl}acetic acid]	1050	20	21
COc1ccc(C(F)(F)F)cc1N1C(N2CCn3c(cc4c(F)cccc43)C2)=Nc2c(F)cccc2C1CC(=O)O (single isomer, unassigned) [Example 4]	117	120	14
COc1ccc(C(F)(F)F)cc1N1C(N2CCn3c(cc4c(C)cccc43)C2)=Nc2c(F)cccc2C1CC(=O)O (single isomer, unassigned) [Example 2]	233	90	21
